Molecular target: T1, ERα (Homo sapiens, UniProt P03372)
T1 construct: host or cells: MCF7
T1 sequence (P03372 1-595): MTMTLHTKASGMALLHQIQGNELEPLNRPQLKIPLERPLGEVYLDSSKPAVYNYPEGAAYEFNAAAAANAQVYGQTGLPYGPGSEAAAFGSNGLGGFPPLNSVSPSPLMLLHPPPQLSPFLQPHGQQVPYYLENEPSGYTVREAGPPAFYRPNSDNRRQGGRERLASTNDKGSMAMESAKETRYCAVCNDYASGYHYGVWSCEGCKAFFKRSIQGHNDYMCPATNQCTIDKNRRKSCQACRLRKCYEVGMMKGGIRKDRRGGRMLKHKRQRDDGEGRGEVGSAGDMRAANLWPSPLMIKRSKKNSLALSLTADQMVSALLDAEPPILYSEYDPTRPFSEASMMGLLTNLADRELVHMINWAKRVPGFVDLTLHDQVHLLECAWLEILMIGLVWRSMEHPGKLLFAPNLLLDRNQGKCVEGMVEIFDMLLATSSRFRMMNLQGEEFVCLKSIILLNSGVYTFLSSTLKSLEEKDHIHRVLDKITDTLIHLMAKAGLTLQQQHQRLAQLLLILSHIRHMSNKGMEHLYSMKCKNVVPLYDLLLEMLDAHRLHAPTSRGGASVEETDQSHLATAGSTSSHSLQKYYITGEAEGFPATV
Experiment: Estrogen receptor degradation activity: breast cancer cell ERα in cell western assay (MCF7 cells)
Assay type: cell-based
Conditions: for % Degradation At 0.3 μM: 4 hours, relative to fulvestrant 0.1 μM positive control; for DC50: 4 hours post compound addition, concentration which degrades 50% of the estrogen receptor, read-out: Degradation IC50
Procedure: Test: Estrogen Receptor Degradation Activity Said test involves measuring the in vitro degradation activity of the compounds of the Table 1a. The measurements of the degradation activities were made using a breast cancer cell ERα in cell western assay as described hereunder. MCF7 cells (ATCC) were seeded in 384 wells microplate (collagen coated) at a concentration of 10000 cells/30 μL per well in red phenol free MEM alpha medium (invitrogen) containing 5% charcoal dextran striped FBS. The following day, 9 points serial 1:5 dilution of each compound was added to the cells in 2.5 μL at final concentrations ranging from […] (in table 2), or 0.1 μM for fulvestrant (using as positive control). At 4 hours post compound addition the cells were fixed by adding 25 μL of formalin (final concentration 5% formalin containing 0.1% triton) for 10 minutes at room temperature and then washed twice with PBS. Then, 50 μL of LI-COR blocking buffer containing 0.1% Triton was added to plate for 30 minutes at room temperature. LI-COR blocking buffer was removed and cells were incubated overnight at cold room with 50 μL anti-ER rabbit monoclonal antibody (Thermo scientific MA1-39540) diluted at 1:1000 in LI-COR blocking buffer containing 0.1% tween-20. Wells which were treated with blocking buffer but no antibody were used as background control. Wells were washed twice with PBS (0.1% tween-20) and incubated at 37° C. for 60 minutes in LI-COR (0.1% tween-20) containing goat anti-rabbit antibody Alexa 488 (1:1000) and Syto-64 a DNA dye (2 μM final concentration). Cells were then washed 3 times in PBS and scanned in ACUMEN explorer (TTP-Labtech). Integrated intensities in the green fluorescence and red fluorescence were measured to determine the levels of ERα and DNA respectively. The degradation activity with respect to estrogen receptors in this test is given by the concentration which degrades 50% of the estrogen receptor (or IC50) in nM. […] DMSO−fulvestrant)).

SMILES	% Degradation At 0.3 μM [%]	DC50 [nM]
O=C(O)c1ccc2c(c1)CCCC(c1ccc(Cl)cc1Cl)=C2c1ccc(C=C2CN(CCCF)C2)cc1 [Example 1, 8-(2,4-Dichlorophenyl)-9-(4-((1-(3-fluoropropyl)azetidin-3-ylidene)methyl)phenyl)-6,7-dihydro-5H-benzo[7]annulene-3-carboxylic acid]	96	0.4
COc1nccc(C2=C(c3ccc(C=C4CN(CCCF)C4)cc3)c3ccc(C(=O)O)cc3CCC2)c1F [Example 2, 8-(3-fluoro-2-methoxypyridin-4-yl)-9-(4-((1-(3-fluoropropyl)azetidin-3-ylidene)methyl)phenyl)-6,7-dihydro-5H-benzo[7]annulene-3-carboxylic acid]	92	0.6
Cc1cc(C(F)(F)F)ccc1C1=C(c2ccc(C=C3CN(CCCF)C3)cc2)c2ccc(C(=O)O)cc2CCC1 [Example 3, 9-(4-((1-(3-fluoropropyl)azetidin-3-ylidene)methyl)phenyl)-8-(2-methyl-4-(trifluoromethyl)phenyl)-6,7-dihydro-5H-benzo[7]annulene-3-carboxylic acid]	90	0.3
O=C(O)c1ccc2c(c1)CCCC(c1cc(F)cc3c1CCC3)=C2c1ccc(C=C2CN(CCCF)C2)cc1 [Example 4, 8-(6-fluoro-2,3-dihydro-1H-inden-4-yl)-9-(4-((1-(3-fluoropropyl)azetidin-3-ylidene)methyl)phenyl)-6,7-dihydro-5H-benzo[7]annulene-3-carboxylic acid]	86	0.8
O=C(O)c1ccc2c(c1)CCCC(c1ccc(Cl)c(C(F)(F)F)c1)=C2c1ccc(C=C2CN(CCCF)C2)cc1 [Example 5, 8-(4-chloro-3-(trifluoromethyl)phenyl)-9-(4-((1-(3-fluoropropyl)azetidin-3-ylidene)methyl)phenyl)-6,7-dihydro-5H-benzo[7]annulene-3-carboxylic acid]	88	1
O=C(O)c1ccc2c(c1)CCCC(c1c(F)ccc3c1CCC3)=C2c1ccc(C=C2CN(CCCF)C2)cc1 [Example 6, 8-(5-fluoro-2,3-dihydro-1H-inden-4-yl)-9-(4-((1-(3-fluoropropyl)azetidin-3-ylidene)methyl)phenyl)-6,7-dihydro-5H-benzo[7]annulene-3-carboxylic acid]	92	0.4
O=C(O)c1ccc2c(c1)CCCC(c1ccc3c(c1F)CCC3)=C2c1ccc(C=C2CN(CCCF)C2)cc1 [Example 7, 8-(4-fluoro-2,3-dihydro-1H-inden-5-yl)-9-(4-((1-(3-fluoropropyl)azetidin-3-ylidene)methyl)phenyl)-6,7-dihydro-5H-benzo[7]annulene-3-carboxylic acid]	90	0.6
O=C(O)c1ccc2c(c1)CCCC(c1ccc3c(c1)CC3)=C2c1ccc(C=C2CN(CCCF)C2)cc1 [Example 8, 8-(Bicyclo[4.2.0]octa-1,3,5-trien-3-yl)-9-(4-((1-(3-fluoropropyl)azetidin-3-ylidene)methyl)phenyl)-6,7-dihydro-5H-benzo[7]annulene-3-carboxylic acid]	86	0.4
O=C(O)c1ccc2c(c1)CCCC(c1cccc3c1CCC3(F)F)=C2c1ccc(C=C2CN(CCCF)C2)cc1 [Example 9, 8-(1,1-difluoro-2,3-dihydro-1H-inden-4-yl)-9-(4-((1-(3-fluoropropyl)azetidin-3-ylidene)methyl)phenyl)-6,7-dihydro-5H-benzo[7]annulene-3-carboxylic acid]	90	0.6
O=C(O)c1ccc2c(c1)CCCC(c1cccc3c1CCC3)=C2c1ccc(C=C2CN(CCCF)C2)cc1 [Example 10, 8-(2,3-dihydro-1H-inden-4-yl)-9-(4-((1-(3-fluoropropyl)azetidin-3-ylidene)methyl)phenyl)-6,7-dihydro-5H-benzo[7]annulene-3-carboxylic acid]	90	0.2
Cc1cc(F)ccc1C1=C(c2ccc(C=C3CN(CCCF)C3)cc2F)c2ccc(C(=O)O)cc2CCC1 [Example 11, 8-(4-fluoro-2-methylphenyl)-9-(2-fluoro-4-((1-(3-fluoropropyl)azetidin-3-ylidene)methyl)phenyl)-6,7-dihydro-5H-benzo[7]annulene-3-carboxylic acid]	91	0.3
O=C(O)c1ccc2c(c1)CCCC(c1ccc(F)c3c1CCC3)=C2c1ccc(C=C2CN(CCCF)C2)cc1 [Example 12, 8-(7-fluoro-2,3-dihydro-1H-inden-4-yl)-9-(4-((1-(3-fluoropropyl)azetidin-3-ylidene)methyl)phenyl)-6,7-dihydro-5H-benzo[7]annulene-3-carboxylic acid]	93	0.4
O=C(O)c1ccc2c(c1)CCCC(c1cccc(Cl)c1C(F)(F)F)=C2c1ccc(C=C2CN(CCC(F)F)C2)cc1 [Example 13, 8-(3-chloro-2-(trifluoromethyl)phenyl)-9-(4-((1-(3,3-difluoropropyl)azetidin-3-ylidene)methyl)phenyl)-6,7-dihydro-5H-benzo[7]annulene-3-carboxylic acid]	89	0.5
Cc1c(C2=C(c3ccc(C=C4CN(CCCF)C4)cc3)c3ccc(C(=O)O)cc3CCC2)cccc1C(F)(F)F [Example 14]	88	0.2
Cc1cc(C=C2CN(CCCF)C2)c(F)cc1C1=C(c2ccc(F)cc2F)CCCc2cc(C(=O)O)ccc21.Cl [Example 15, 8-(2,4-difluorophenyl)-9-(5-fluoro-4-((1-(3-fluoropropyl)azetidin-3-ylidene)methyl)-2-methylphenyl)-6,7-dihydro-5H-benzo[7]annulene-3-carboxylic acid hydrochloride]	87	0.6
O=C(O)c1ccc2c(c1)CCCC(c1ccc(C(F)(F)F)cc1C(F)(F)F)=C2c1ccc(C=C2CN(CCCF)C2)cc1 [Example 16, 8-(2,4-bis(trifluoromethyl)phenyl)-9-(4-((1-(3-fluoropropyl)azetidin-3-ylidene)methyl)phenyl)-6,7-dihydro-5H-benzo[7]annulene-3-carboxylic acid]	93	0.4
Cc1c(C2=C(c3ccc(F)cc3F)CCCc3cc(C(=O)O)ccc32)ccc(C=C2CN(CCCF)C2)c1F.Cl [Example 17, 8-(2,4-difluorophenyl)-9-(3-fluoro-4-((1-(3-fluoropropyl)azetidin-3-ylidene)methyl)-2-methylphenyl)-6,7-dihydro-5H-benzo[7]annulene-3-carboxylic acid hydrochloride]	89	0.5
O=C(O)c1ccc2c(c1)CCCC(c1ncc(F)cc1C(F)(F)F)=C2c1ccc(C=C2CN(CCCF)C2)cc1 [Example 18, 8-(5-fluoro-3-(trifluoromethyl)pyridin-2-yl)-9-(4-((1-(3-fluoropropyl)azetidin-3-ylidene)methyl)phenyl)-6,7-dihydro-5H-benzo[7]annulene-3-carboxylic acid]	90	0.6
Cc1cc(F)ccc1C1=C(c2ccc(C=C3CN(CCC(F)F)C3)cc2)c2ccc(C(=O)O)cc2CCC1 [Example 19, 9-(4-((1-(3,3-difluoropropyl)azetidin-3-ylidene)methyl)phenyl)-8-(4-fluoro-2-methylphenyl)-6,7-dihydro-5H-benzo[7]annulene-3-carboxylic acid]	93	0.2
O=C(O)c1ccc2c(c1)CCCC(c1ccc(F)cc1F)=C2c1ccc(C=C2CN(CCC(F)F)C2)cc1 [Example 20, 8-(2,4-difluorophenyl)-9-(4-((1-(3,3-difluoropropyl)azetidin-3-ylidene)methyl)phenyl)-6,7-dihydro-5H-benzo[7]annulene-3-carboxylic acid]	92	0.3
